This is an account of results in patent US12060432B2, “Combination therapies with anti-CD38 antibodies” (Janssen Biotech, Inc., priority 2014, dated 2024).

Experiment [1] concerns NAMALWA cells. In words: NAMALWA model of Burkitt's lymphoma: daratumumab alone or with CHOP. Format: in vivo, NOD SCID mice. As for the experimental part:
2×10^5 NAMALWA cells in matrigel were implanted into NOD SCID mice and treatment initiated when the main tumor size reached approximately 189 mm^3. Daratumumab was administered at 10 mg/kg once a week for three weeks. CHOP was administered daily on days 0-5 using following doses: cyclophosphoamide (CTX): 5 mg/kg i.v.; doxorubicin: 0.5 mg/kg i.v; vincristine: 0.08 mg/kg i.v., prednisone: 0.03 mg/kg p.o. Tumor volume was measured every three days. The Y-axis represents tumor volume±SEM
As a model for Burkitt's lymphoma, NAMALWA cells were utilized to study the efficacy of daratumumab alone or in combination with CHOP.
Namalwa cells were maintained in vitro in RPMI 1640 medium supplemented with fetal bovine serum (10% v/v), and L-glutamine (2 mM) at 37° C. in an atmosphere of 5% CO2 in air. The cells were routinely subcultured twice weekly by trypsin-EDTA treatment. The cells growing in an exponential growth phase were harvested and counted for tumor inoculation. The mice were injected with 2×10^5 Namalwa cells in 0.1 ml of PBS with matrigel (1:1) subcutaneously and the treatments were started when the mean tumor size reached 189 mm^3. The date of tumor cell inoculation is denoted as day 0. The major endpoint was to see if the tumor growth can be delayed or tumor-bearing mice can be cured. Tumor sizes were measured twice weekly and % TGI values calculated as described in Example 1.
Animals were divided in four treatment groups and were administered vehicle (isotype control), daratumumab, CHOP or daratumumab in combination with CHOP at dosages as described in Table 2.

Experiment [2] relates to SU-DHL-6 cells. In words: SU-DHL-6 cell line based NHL-DLBCL model: daratumumab alone or with CHOP. Type of experiment: in vivo, NOD SCID mice. On the procedure: 5×10^6 SU-DHL-6 cells were implanted into NOD SCID mice and treatment initiated when the main tumor size reached approximately 154 mm^3. Daratumumab was administered at 10 mg/kg once a week for four weeks. CHOP was administered daily on days 0-5 using following doses: cyclophosphoamide (CTX): 5 mg/kg i.v.; doxorubicin: 0.5 mg/kg i.v; vincristine: 0.08 mg/kg i.v., prednisone: 0.03 mg/kg p.o. Tumor size was plotted as Mean±SEM.
SU-DHL-6 cell line based NHL-DLBCL model was utilized to study the efficacy of daratumumab alone or in combination with CHOP.
The SU-DHL-6 cells were maintained separately in vitro in RPMI1640 medium supplemented with 20% fetal bovine serum (v/v) at 37° C. in an atmosphere of 5% CO2 in air. The cells were routinely subcultured twice weekly. The cells growing in an exponential growth phase were harvested and counted for tumor inoculation. NOD SCID mice were γ-irradiated (200 rads) at 24 h before injection. Each mouse was inoculated subcutaneously at the right flank with SU-DHL-6 tumor cells (5×10^6) in 0.1 ml of PBS with matrigel (1:1) for tumor development. The treatments were started when the tumor size reaches approximately 154 mm^3. The date of tumor cell inoculation is denoted as day 0. Tumor sizes were measured twice weekly and % TGI values calculated as described in Example 1.
Animals were divided in four treatment groups and were administered vehicle, daratumumab, CHOP or daratumumab in combination with CHOP at dosages as described in Table 3.

The subject of experiment [3] is ST1361 NHL-DLBCL (diffuse large B-cell lymphoma) PDX (patient derived xenograft) model. In words: Patient-derived DLBCL xenograft ST1361: daratumumab alone or with CHOP or R-CHOP. Format: in vivo, SCID/Beige mice. To be noted: for % TGI (percent tumor growth inhibition): up to day 31, versus isotype control. As for the experimental part: Resected DLBCL tumors were implanted in SCID/Beige mice. […] Daratumumab was administered at 20 mg/kg once a week for three weeks. CHOP and R-CHOP were administered once on day 0 except prednisone was administered on days 0-4 using the following regimens: CHOP: (cyclophosphoamide (CTX): 30 mg/kg i.v.; doxorubicin: 2.5 mg/kg i.v; vincristine: 0.4 mg/kg i.v); prednisone: 0.15 mg/kg p.o; R-CHOP: rituximab 20 mg/kg i.p. DAY 0. Tumor volume was measured every three days. The Y-axis represents tumor volume±SEM.
ST1361 is a NHL-DLBCL (diffuse large B-cell lymphoma) PDX (patient derived xenograft) model originating from a person chemo-naïve prior to metastatic sample collection.
Tumors were implanted in immunocompromised mice between 5-8 weeks of age. […] Daratumumab was dosed at 20 mg/kg once a week for 3 weeks. CHOP and R-CHOP at the concentrations described below were dosed once on day 0. CHOP (cyclophosphoamide: 30 mg/kg; doxorubicin: 2.5 mg/kg; vincristine: 0.4 mg/kg)-IV DAY 0; prednisone: 0.15 mg/kg DAYS 0-4; R-CHOP: rituximab 20 mg/kg-IP DAY 0. Beginning Day 0, tumor volume was measured twice weekly by digital caliper and data including individual and mean estimated tumor volumes (Mean TV±SEM) recorded for each group. The study was used to measure tumor growth inhibition until the control group was terminated and then continued as a survival study to evaluate the duration of daratumumab efficacy.
For the study, beginning Day 0, tumor dimensions were measured twice weekly by digital caliper and data including individual and mean estimated tumor volumes (mean TV±SEM) recorded for each group.
Background: In xenograft studies the graft and the host belong to different species.

“Daratumumab: anti-CD38 antibody, IgG1/κ; VH SEQ ID NO: 4, VL SEQ ID NO: 5; heavy chain SEQ ID NO: 12, light chain SEQ ID NO: 13”: the Tumor growth delay in experiment [1] (at tumor size of 2,303 mm^3) is 2 days; in experiment [2] (at tumor size of 1,500 mm^3), 3 days. Also, the T/C value in experiment [1] (day 26 post tumor inoculation) was 70.46%; in experiment [2] (day 32 post tumor inoculation), 45.45%. Also, the “Antitumor activity in tumor size” value in experiment [1] (day 26 post tumor inoculation, versus vehicle) is listed as “significant antitumor activity”; in experiment [2] (day 32 post tumor inoculation, versus vehicle), “significant antitumor activity”. The Mean tumor size in experiment [1] (day 26 post tumor inoculation, daratumumab 10 mg/kg QW x 3, CHOP QD x 5) is listed as 3,017 mm^3; in experiment [2] (day 32 post tumor inoculation, daratumumab 10 mg/kg QW x 4, CHOP QD x 5), 1,946 mm^3. In experiment [3] (day 31, daratumumab 20 mg/kg once a week for 3 weeks, CHOP/R-CHOP once on day 0, prednisone days 0-4, day 0 volume 145-146 mm^3), the “Mean tumor volume (mm^3) ± SEM” value is on record as 744 ± 236 mm^3. Further, the figures for the “% TGI (percent tumor growth inhibition)” value in experiment [3] and in experiment [3] (listed as daratumumab) were 71% and approximately 71%, respectively.
